Experimental data published in patent US9546201B2, “MUC-1 cytoplasmic domain peptides as inhibitors of cancer” (DANA-FARBER CANCER INSTITUTE, INC., priority 2008, dated 2017).
Where a SMILES comes first, the peptide text is derived from it. Where no end group is shown, it is not given here. [ ]: non-standard residue; d: D form.

What was measured:
His-MUC1-CD oligomers = target: T1, His-MUC1-CD oligomers (Homo sapiens, UniProt P15941); assay: Oligomer formation of purified His-MUC1-CD (non-reducing SDS-polyacrylamide gel, anti-MUC1-C immunoblot); assay type: biochemical; details: 200 μM peptide, 1 h at room temperature
T1 sequence (P15941 1184-1255): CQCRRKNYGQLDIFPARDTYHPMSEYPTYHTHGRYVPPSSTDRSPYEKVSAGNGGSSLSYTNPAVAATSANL
Protocol: FIGS. 1A-D. MUC1/CQC peptide blocks MUC1 oligomerization. (FIG. 1A) Schematic representation of the MUC1-C subunit and the 72-amino acid sequence of MUC1-CD (SEQ ID NO: 1) are shown. The N-terminal 15 amino acids (shaded sequence; SEQ ID NO: 3) MUC1/CQC (SEQ ID NO: 63) and mutated MUC1/AQA (SEQ ID NO: 60) peptides were synthesized with the poly-dArg transduction domain. (FIG. 1B) His-MUC1-CD (1.4 mg/ml) was immobilized on a sensor chip in a BIAcore. MUC1/CQC was injected over the chip at 10 μM. Raw binding data were analyzed by BIAevaluation software version 3.0 and fit to a 1:1 Languir binding model. (FIG. 1C) Purified His-MUC1-CD (1.5 mg/ml) was incubated with PBS, 200 μM MUC1/CQC or 200 μM MUC1/AQA for 1 h at room temperature. The proteins were separated in a non-reducing SDS-polyacrylamide gel and analyzed by immunoblotting with anti-MUC1-C. (FIG. 1D) 293 cells were transiently transfected to express an empty vector or GFP-MUC1-CD and Flag-MUC1-CD. At 48 h after transfection, the cells were treated with 5 μM MUC1/CQC or MUC1/AQA for 3 d. The cells were then harvested for immunoblotting with anti-MUC1-C (left panel). […]
The MUC1 cytoplasmic domain (MUC1-CD) contains a CQC motif that is necessary for the formation of oligomers and nuclear localization (Leng et al., 2007). […] Purified His-tagged MUC1-CD forms oligomers as detected by electrophoresis in polyacrylamide gels (FIG. 1C). […]

MUC1-C in ZR-75-1 cells = target: T2, MUC1-C in ZR-75-1 cells (Homo sapiens, UniProt P15941); assay: Immunoblot of whole cell and nuclear lysates, ZR-75-1; assay type: cell-based; details: 5 μM peptide for 3 d; for decreases in nuclear MUC1-C levels: nuclear lysates; for cellular MUC1-C levels: whole cell lysates
T2 construct: translated as a single polypeptide and cleaved into N- and C-terminal subunits in the endoplasmic reticulum; endogenous in cells; host or cells: ZR-75-1 and MCF-7 human breast cancer cells
T2 sequence (P15941 1098-1255 limits assumed): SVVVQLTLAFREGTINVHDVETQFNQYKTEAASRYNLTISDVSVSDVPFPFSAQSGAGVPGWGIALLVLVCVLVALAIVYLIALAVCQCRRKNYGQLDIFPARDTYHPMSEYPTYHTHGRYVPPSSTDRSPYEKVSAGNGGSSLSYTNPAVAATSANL
Protocol: FIGS. 2A-C. MUC1/CQC peptide blocks nuclear localization of MUC1-C. (FIG. 2A) ZR-75-1 cells were incubated with 5 μM FITC-labeled MUC1/CQC peptide for the indicated times and then analyzed by flow cytometry. The mean fluorescence index (MFI) is included in each of the panels. (FIGS. 2B-C) ZR-75-1 (FIG. 2B) and MCF-7 (FIG. 2C) cells were incubated in the presence of 5 μM MUC1/CQC or MUC1/AQA peptide for 3 d. Whole cell lysates (WCL) (left panels) and nuclear lysates (right panels) were immunoblotted with the indicated antibodies.
Whole cell and nuclear lysates were prepared as described (Leng et al., 2007). Soluble proteins were subjected to immunoprecipitation with anti-Flag (Sigma, St. Louis, Mo.). Immunoprecitates and soluble proteins were analyzed by immunoblotting with anti-His (Cell Signaling Technology, Danvers, Mass.), anti-GFP (Millipore, Danvers, Mass.), anti-Flag, anti-MUC1-C (Abl; NeoMarkers, Fremont, Calif.), anti-lamin B (EMD, La Jolla, Calif.) or anti-β-actin (Sigma). Reactivity was detected with horseradish peroxidase-conjugated second antibodies and chemiluminescence.
Human ZR-75-1 and MCF-7 breast cancer cells overexpress endogenous MUC1, and thus represent potential models for evaluating effects of the MUC1/CQC peptide (Ramasamy et al., 2007). To assess uptake, the ZR-75-1 cells were incubated with 5 μM FITC-MUC1/CQC peptide (FIG. 2A). […] Oligomerization of MUC1-C is necessary for its nuclear import (Leng et al., 2007). Treatment of ZR-75-1 cells with the MUC1/CQC or the MUC1/AQA peptide had no effect on cellular MUC1-C levels (FIG. 2B). […] These findings indicate that the MUC1/CQC peptide blocks MUC1-C oligomerization and thereby targeting of MUC1-C to the nucleus.

Compound | oligomer formation of His-MUC1-CD (His-MUC1-CD oligomers) | decreases in nuclear MUC1-C levels (MUC1-C in ZR-75-1 cells) | cellular MUC1-C levels (MUC1-C in ZR-75-1 cells)
CC[C@H](C)[C@H](NC(=O)[C@H](CC(=O)O)NC(=O)[C@H](CC(C)C)NC(=O)[C@H](CCC(N)=O)NC(=O)CNC(=O)[C@H](Cc1ccc(O)cc1)NC(=O)[C@H](CC(N)=O)NC(=O)[C@H](CCCCN)NC(=O)[C@H](CCCNC(=N)N)NC(=O)[C@H](CCCNC(=N)N)NC(=O)[C@H](CS)NC(=O)[C@H](CCC(N)=O)NC(=O)[C@H](CS)NC(=O)[C@@H](CCCNC(=N)N)NC(=O)[C@@H](CCCNC(=N)N)NC(=O)[C@@H](CCCNC(=N)N)NC(=O)[C@@H](CCCNC(=N)N)NC(=O)[C@@H](CCCNC(=N)N)NC(=O)[C@@H](CCCNC(=N)N)NC(=O)[C@@H](CCCNC(=N)N)NC(=O)[C@@H](CCCNC(=N)N)NC(=O)[C@H](N)CCCNC(=N)N)C(=O)N[C@@H](Cc1ccccc1)C(=O)N1CCC[C@H]1C(=O)O [MUC1/CQC] (H-[dR][dR][dR][dR][dR][dR][dR][dR][dR]CQCRRKNYGQLDIFP-OH; N-terminus and C-terminus assumed) | substantially decreased oligomer formation | decreases in nuclear MUC1-C levels | no effect
MUC1/AQA: control peptide in which the CQC motif was altered to AQA, with poly-dArg transduction domain; SEQ ID NO: 60 ([dR][dR][dR][dR][dR][dR][dR][dR][dR]AQARRKNYGQLDIFP) [reference compound] | little if any effect | not | no effect
